In patent US9873883B2, “Glyphosate resistant plants and associated methods” (Dow AgroSciences LLC, priority 2012, dated 2018):

What was measured:
[1] = target: T1, Brassica napus (canola) EPSP synthase DGT-3 (GENBANK P17688) variant DGT-3 v6 (G→A) (Brassica napus, UniProt P17688, G173A); assay: In vitro kinetic assay (inorganic phosphate production, malachite green); assay type: biochemical; conditions: for IC50: IC50 (glyphosate)
T1 construct: made in house; host or cells: E. coli Rosetta2 (DE3)
T1 sequence (P17688 73-516 G173A): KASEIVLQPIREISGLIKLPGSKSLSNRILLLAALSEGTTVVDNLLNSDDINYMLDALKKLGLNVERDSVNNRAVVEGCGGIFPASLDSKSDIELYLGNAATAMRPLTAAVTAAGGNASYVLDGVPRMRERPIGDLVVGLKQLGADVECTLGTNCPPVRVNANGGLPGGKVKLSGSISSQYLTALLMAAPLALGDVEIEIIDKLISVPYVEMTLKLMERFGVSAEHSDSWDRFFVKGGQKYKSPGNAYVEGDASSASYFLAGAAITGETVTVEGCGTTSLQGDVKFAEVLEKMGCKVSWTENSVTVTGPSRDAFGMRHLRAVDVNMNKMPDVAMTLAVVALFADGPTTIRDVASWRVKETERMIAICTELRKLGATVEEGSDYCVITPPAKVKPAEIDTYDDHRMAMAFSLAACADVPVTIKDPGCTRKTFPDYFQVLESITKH
From the text: (§1) The following Class I enzymes: DGT-1 from Glycine max, DGT-3 from Brassica napus (GENBANK ACC NO: P17688), and DGT-7 from Triticum aestivum (GENBANK ACC NO: EU977181) were used as a comparison. The Class I EPSP synthase enzymes and mutant variants thereof were synthesized and evaluated. A mutation introduced into the plant EPSP synthase enzymes consisted of the Glycine to Alanine mutation made within the EPSP synthase enzyme at a similar location as that of the G96A mutation from the E. coli version of the enzyme. In addition, Threonine to Isoleucine and Proline to Serine mutations were introduced within these Class I EPSP synthase enzymes at analogous positions as that of amino acid 97 (T to I) and amino acid 101 (P to S) in the EPSP synthase of E. coli as described in Funke et al., (2009).
(§2) The location of the amino acid residue which was mutated from glycine to alanine is indicated by the first asterisk. The location of the amino acid residue which was mutated from threonine to isoleucine is indicated by the second asterisk. The location of the third amino acid residue which was mutated from proline to serine is indicated by the third asterisk. These mutations were introduced into different versions of DGT-1, DGT-3, and DGT-7. The different versions of the genes which contain the mutations are described in more detail below.
(§3) Additional constructs containing the dgt-1, dgt-3 and dgt-7 were synthesized. These constructs were used for in vitro testing of the dgt-1 v5, dgt-1 v6, dgt-1 v7, dgt-1 v8, dgt-3 v6, dgt-3 v7, dgt-3 v8, dgt-7 v5, dgt-7 v6, dgt-7 v7, and dgt-7 v8 gene sequences were outsourced to GeneArt for synthesis and cloning. The synthesized genes were cloned into the pET28 expression vector. The resulting constructions were labeled as pDAB102028 containing dgt-1 v5, pDAB102029 containing dgt-1 v6, pDAB102032 containing dgt-1 v7, pDAB102034 containing dgt-1 v8, pDAB100429 containing dgt-3 v6, pDAB100442 containing dgt-3 v7, pDAB100430 containing dgt-3 v8, pDAB102036 containing dgt-7 v5, pDAB102038 containing dgt-7 v6, pDAB102040 containing dgt-7 v7, and pDAB102042 containing dgt-7 v8.
(§4) Recombinant DGT proteins were overexpressed in Rosetta2™ (DE3) cells (Novagen, Madison, Wis.) from the constructs described above. A single colony was used to inoculate 50 mL starter cultures of LB containing chloramphenicol (25 μg/mL) and kanamycin (50 μg/mL) which were cultivated overnight at 37° C. The overnight cultures were used to inoculate 1 L of LB containing chloramphenicol (25 μg/mL) and kanamycin (50 μg/mL). The cultures were grown at 37° C. to an O.D.600=0.6 then placed in an ice water bath for 10 minutes. Expression of the target proteins was achieved by addition of IPTG to a final concentration of 500 μM. Induction was allowed to proceed overnight at 20° C. followed by harvesting via centrifugation at 8,000 rpm for 20 minutes. The cell pellets were stored at −80° C. until required for purification. All purification steps were carried out at 4° C.
(§5) Cell pellets from 1 L cultures were resuspended in 20-30 mL Buffer A (50 mM HEPES pH 7.5, 150 mM KCl, 2 mM DTT, 1 mM EDTA, 20 mM imidazole, and 5% glycerol). COMPLETE™ protease inhibitor cocktail (1 tablet/50 mL, Roche, Indianapolis, Ind.) and lysozyme (1 mg/mL, Sigma-Aldrich, St. Louis, Mo.) were then added and the suspension was stirred for 20 minutes. Cell lysis was performed using a Branson Sonifier 250 (3×60 second bursts) followed by removal of the cell debris by centrifugation at 16,000 rpm for 45 minutes. DGT enzymes were purified to homogeneity in one step via immobilized metal affinity chromatography (IMAC) using a 5 mL HisTrap FF crude column. The column was equilibrated in Buffer A and the sample was loaded in the same buffer. The column was then washed with 10 column volumes of Buffer A followed by elution in a 0-100% Buffer B (50 mM HEPES pH 7.5, 200 mM KCl, 2 mM DTT, 1 mM EDTA, 500 mM imidazole, and 5% glycerol) linear gradient over 25 column volumes. […]

[2] = target: T2, Triticum aestivum (wheat) EPSP synthase DGT-7 variant DGT-7 v6 (G→A) (Triticum aestivum, UniProt B5M6A1, G167A); assay: as above; assay type: biochemical; conditions: for IC50: IC50 (glyphosate)
T2 sequence (B5M6A1 with tags, fused parts or gaps G167A): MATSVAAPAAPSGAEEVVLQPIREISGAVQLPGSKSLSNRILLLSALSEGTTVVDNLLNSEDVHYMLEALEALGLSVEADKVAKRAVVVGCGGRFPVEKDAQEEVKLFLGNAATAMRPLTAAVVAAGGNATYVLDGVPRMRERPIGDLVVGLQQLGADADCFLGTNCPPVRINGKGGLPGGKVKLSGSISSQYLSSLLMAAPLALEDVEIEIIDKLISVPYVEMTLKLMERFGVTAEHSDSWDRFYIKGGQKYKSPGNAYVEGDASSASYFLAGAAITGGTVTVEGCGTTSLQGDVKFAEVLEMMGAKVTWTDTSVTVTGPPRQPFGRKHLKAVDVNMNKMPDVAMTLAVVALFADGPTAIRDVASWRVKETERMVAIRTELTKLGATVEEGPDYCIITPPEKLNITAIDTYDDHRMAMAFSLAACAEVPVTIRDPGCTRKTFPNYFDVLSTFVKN
From the text: as §1, §2, §3, §4, §5

SMILES | increase of Km for PEP ([1]; G to A mutation vs un-mutated) [fold] | increase of Km for PEP ([2]; G to A mutation vs un-mutated) [fold] | IC50 ([1]; at 60 μM PEP) [mM] | IC50 ([1]; at 1 mM PEP) [mM] | IC50 ([2]; at 60 μM PEP) [mM] | IC50 ([2]; at 1 mM PEP) [mM]
C=C(OP(=O)(O)O)C(=O)O [PEP, phosphoenolpyruvate] | ~8 | ~8 | – | – | – | –
O=C(O)CNCP(=O)(O)O [glyphosate, N-(phosphonomethyl)glycine] | – | – | 8.7 | 15.8 | 15.1 | 8.1
